“Also recorded” adds a separate entry of the source.
Key:
Ross 708 male broilers = experiment: Clinical study of in-feed AGPs in broilers: weight gain and feed conversion; assay type: in vivo, chickens (Gallus gallus); conditions: in-feed: 50 g/ton BMD, 20 g/ton avilamycin, 16.5 g/ton virginiamycin, 70 g/ton narasin; 35 days
Description: 500 healthy Ross 708 male broilers sourced from a commercial hatchery were used in the experiment. […] Birds were individually tagged with a unique identifier and were randomly assigned to one of 25 floor pens (20 animals per pen). Groups of 5 pens were assigned to each of 5 different treatments. The 5 treatments included: 1) control birds fed least-cost diets as follows: A starter diet was fed from days 0 to 14 of the study, followed by a grower diet (14-28d) and a finisher diet (28-35d). 2) Birds fed the above diets supplemented with 50 g/ton BMD. 3) Supplemented with 20 g/ton avilamycin. 4) Supplemented with 16.5 g/ton Virginiamycin. And 5) supplemented with 70 g/ton narasin. Birds were raised for 35 days in a barn on top of used litter.
Individual body weights were collected on days 0, 7, 21 and 35. Pen weights were collected on days 14 and 28. Feed weigh backs for each pen were done on days 7, 14, 21, 28 and 35 of the study. Average bird weights and feed intake per pen were used to calculate weekly values of average daily gain and feed conversion ratios. Weekly values were compared between treatments using the Mann Whitney U test. On days 7, 21 and 35 three birds per pen were randomly selected and euthanized for the collection of cecal contents and blood. Blood was collected via wing vein venipuncture, except for birds that were too small, in which cases direct heart puncture was used. In both cases, blood was collected into vacutainer tubes and centrifuged to obtain serum. Cecal samples were collected by aseptically squeezing the cecum content into a sterile tube. Cecal samples were placed on dry ice immediately after collection. All samples were stored at −80° C. until processing.

cecal microbiome = experiment: Shotgun metagenomics (functional/taxonomic profiles, GSEA) of cecal microbiome, day 35 broilers; assay type: in vivo, chickens (Gallus gallus); conditions: day 35 cecal samples
Experimental: 74 frozen cecal samples from day 35 birds were sent to CosmosID (Rockville, MD) for shotgun metagenomics sequencing. DNA was extracted using the ZymoBIOMICS DNA Miniprep Kit (ZymoBIOMICS, Irvine, CA) according to the manufacturers protocol. The isolated DNA was quantified by Qbit (ThermoFisher, Coon Rapids, MN). DNA libraries were prepared using the Illumina Nextera XT library preparation kit (Illumina, San Diego, CA), with a modified protocol. Libraries were then sequenced on an Illumina HiSeq platform 2×150 bp.
Reads were trimmed and Illumina adapters removed using Trimmomatic (v 0.39) (Bolger et al., Bioinformatics 30, 2114-2120 (2014)) with options SLIDINGWINDOW:5:20 LEADING:3 TRAILING:3. Host reads (Gallus gallus, GenBank assembly GCA_000002315) and spike-in reads from Vibrio harveyii (ATCC 14126) were removed using Bowtie2 (v. 2.3.5.1) (Langmead et al., Nat Methods 9, 357-359 (2012)).
Taxonomic profiling of individual reads was carried out using Kaiju (v. 1.7.3) (Menzel et al., Nat Commun 7, 11257 (2016)) with the nr_euk database. Kaiju outputs were summarized for each read as the number of bases aligned to proteins in the reference database. In cases of individual reads mapping to more than one taxonomic group, the number of bases assigned to each taxon was calculated as the alignment length (in base pairs) multiplied by the fraction of bases assigned unambiguously to said taxon out of all the taxa to which the read mapped. The numbers of assigned bases per read were used to estimate species-level relative abundances using metametamerge (v. 1.1) (Piro, V. C., et al., Microbiome 5, 101 (2017).) taking into account the average coding length per species in the nr_euk database.
Functional profiling was done by first assembling the reads from each sample into contigs using Spades (v. 3.13.1, option --meta) (Nurk, S. et al., Genome Res 27, 824-834 (2017)), with default parameters, followed by protein prediction with Prokka (v. 1.14.5) (Seemann, T. Prokka: Bioinformatics 30, 2068-2069 (2014).). Predicted protein sequences were aligned to a reference database and using Diamond (v. 0.9.30) (Buchfink, B. et al. Nat Methods 18, 366-368 (2021)) and annotated based on the function assigned to the top hit in the database. To avoid misannotations, (Plata, G. et al. Nat Chem Biol 8, 848-854 (2012)) the inventors only considered hits with at least 70% identity and 70% query coverage. The reference database was built starting from 46,181 complete bacterial genomes downloaded from the PATRIC (Davis, J. J. et al. Nucleic Acids Res 48, D606-D612 (2020)) database representing at most 10 genomes per species from ˜400 taxonomic families including those most frequently observed in broiler microbiomes. To speed up functional annotations, protein sequences within each family in the database were clustered at 90% sequence identity using CD-HIT (v. 4.8.1) (Huang, Y. et al. Bioinformatics 26, 680-682 (2010)) and the longest sequence from each cluster was kept for the diamond search.
To quantify the abundance of each function per sample, reads were mapped to the corresponding contigs using BWA (v. 0.7.17) (Li, H. & Durbin, R. Bioinformatics 25, 1754-1760 (2009)), and reads mapping to each predicted protein were counted with HTseq (v. 0.11.3) (Anders, S. et al. Bioinformatics 31, 166-169 (2015)). Read counts per RAST functional role were TPM normalized based on the Prokka protein lengths (Zhao, S. et. al. RNA 26, 903-909 (2020)) and expressed in units of mean copy numbers per genome by calculating a normalization factor such that the median abundance of a set of universal-single copy bacterial genes (Creevey, C. J. et al. PLOS One 6, e22099 (2011)) was set to 1 (Manor, O. & Borenstein, E. Genome Biology 16, 53 (2015)). A similar procedure was used to produce a copy-number normalized matrix of functional roles across samples stratified by the bacterial genera of the protein hits used to transfer functional annotations. […]

CC[C@@H](C(=O)O)[C@@H]1O[C@@H]([C@@H](C)[C@H](O)[C@H](C)C(=O)[C@H](CC)[C@H]2O[C@]3(C=C[C@@H](O)[C@]4(CC[C@@](C)([C@H]5CC[C@](O)(CC)[C@H](C)O5)O4)O3)[C@H](C)C[C@@H]2C)[C@@H](C)C[C@@H]1C [narasin]
impact on bird performance (Ross 708 male broilers): highest impact on performance
functional processes depleted in cecal microbiome relative to controls (GSEA) (cecal microbiome): utilization of mucin polysaccharides as well as cell matrix components including sialic acid, N-acetylneuraminate and hyaluronic acid
functional processes enriched in cecal microbiome relative to controls (GSEA) (cecal microbiome): propanediol utilization, molybdenum-containing cofactor synthesis and CO2 fixation via the Wood-Ljungdahl pathway; also recorded: Tryptophan synthesis, urea degradation, heme and tetrapyrrole biosynthesis, and xylose utilization

Source: US20250163522A1, “METHODS FOR PRESERVING HEALTHY INTESTINAL MICROBIOME DURING GROWTH PROMOTER ADMINSTRATION” (BIOMEDIT, LLC, priority 2022, published 2025)
